{"source": "paper PMC9217999", "about": "(Targeted Oncology, 2022)", "key": {"[1]": {"details": "Days 1−21 of each 28-day cycle; cited from earlier work"}, "[2]": {"test_system": "xenograft models of pediatric solid tumors", "details": "ref Roche data on file; cited from earlier work"}, "[3]": {"assay": "Cobimetinib plasma pharmacokinetics in iMATRIX-cobi", "format": "in vivo, human", "details": "for Cmax: human, plasma, oral, 1 mg/kg, Steady state Cmax, geometric mean (%CV), 1.0 mg/kg suspension"}, "[4]": {"test_system": "pediatric cancer cell lines", "details": "ref Roche data on file; cited from earlier work"}, "P-glycoprotein": {"test_system": "P-glycoprotein", "details": "cited from earlier work"}, "[5]": {"details": "cited from earlier work"}, "[6]": {"details": "adults, similar dose; cited from earlier work"}, "[7]": {"test_system": "unresectable/metastatic BRAF V600E/K-mutated melanoma", "details": "combined with vemurafenib versus vemurafenib plus placebo, p < 0.0001; cited from earlier work"}}}
{"smiles": "O=C(c1ccc(F)c(F)c1Nc1ccc(I)cc1F)N1CC(O)([C@@H]2CCCCN2)C1", "note": "[cobimetinib]", "values": [{"measurement": "Recommended Phase II dose (RP2D) in adults", "setting": "[1]", "value": 60, "unit": "mg/day"}, {"measurement": "Activity in xenograft models", "setting": "[2]", "value": "activity observed"}, {"measurement": "Cmax", "setting": "[3]; dose escalation (n = 8)", "value": 179, "unit": "ng/mL"}, {"measurement": "Cmax", "setting": "[3]; expansion (n = 9)", "value": 116, "unit": "ng/mL"}, {"measurement": "Exposure-safety relationships", "setting": "[3]; pediatric patients", "value": "no exposure-safety relationships"}, {"measurement": "Cytotoxic effects", "setting": "[4]", "value": "Cytotoxic effects"}, {"measurement": "P-glycoprotein substrate", "setting": "P-glycoprotein", "value": "substrate of P-glycoprotein"}, {"measurement": "Mean accumulation ratio in adults", "setting": "[5]", "value": 2.4, "unit": "fold"}, {"measurement": "Cobimetinib AUC lower in healthy subjects versus cancer patients", "setting": "[6]", "value": 50, "unit": "%"}, {"measurement": "Investigator-assessed progression-free survival (PFS)", "setting": "[7]", "value": "significantly improved"}, {"measurement": "Objective response rate (ORR)", "setting": "[7]", "value": "significantly improved"}]}
